Reference: US20160106102A1, “KNOWN AND NEW HETEROCYCLIC COMPOUNDS AS PEST CONTROL AGENTS” (BAYER CROPSCIENCE AKTIENGESELLSCHAFT, priority 2013, published 2016)

System: Myzus persicae
Assay: Myzus persicae - sachet test
Assay type: in vivo
Conditions: Myzus persicae; application rate of 6 ppm in nutrient medium; 100% = all animals killed; read-out: efficacy (kill in %)
Procedure, shortened: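 Active ingredient dissolved with 2% N-methylpyrrolidone and 2% diacetone alcohol, diluted in water, then pipetted into nutrient medium. Plate sealed and paired with a plate carrying green peach aphids. Kill in % scored after the set time (100% = all dead, 0% = none dead).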

Compound | pest or weed control at 6 ppm
Cc1cc(NC(=O)c2cccnc2)n[nH]1 [Compound I-1-17, N-(5-Methyl-1H-pyrazol-3-yl)nicotinamide] | 100%
CCS(=O)(=O)Cn1nc(NC(=O)c2cccnc2)cc1C [Compound I-1-246, N-{1-[(Ethylsulphonyl)methyl]-5-methyl-1H-pyrazol-3-yl}nicotinamide] | 100%
Cc1cc(NC(=O)c2cncc(F)c2)nn1Cc1ncccn1 [Compound I-1-7, 5-Fluoro-N-[5-methyl-1-(pyrimidin-2-ylmethyl)-1H-pyrazol-3-yl]nicotinamide] | 100%
O=C(Nc1cc(Br)n(Cc2ncccn2)n1)c1cccnc1 [Compound I-1-140, N-[5-Bromo-1-(pyrimidin-2-ylmethyl)-1H-pyrazol-3-yl]nicotinamide] | 100%

Same assay, conditions: Myzus persicae; application rate of 30 ppm in nutrient medium; 100% = all animals killed; read-out: efficacy (kill in %)

Compound | pest or weed control at 30 ppm
Cc1cc(NC(=O)c2cccnc2)n[nH]1 [Compound I-1-17, N-(5-Methyl-1H-pyrazol-3-yl)nicotinamide] | 100%
CCS(=O)(=O)Cn1nc(NC(=O)c2cccnc2)cc1C [Compound I-1-246, N-{1-[(Ethylsulphonyl)methyl]-5-methyl-1H-pyrazol-3-yl}nicotinamide] | 100%
Cc1cc(NC(=O)c2cncc(F)c2)nn1Cc1ncccn1 [Compound I-1-7, 5-Fluoro-N-[5-methyl-1-(pyrimidin-2-ylmethyl)-1H-pyrazol-3-yl]nicotinamide] | 100%
O=C(Nc1cc(Br)n(Cc2ncccn2)n1)c1cccnc1 [Compound I-1-140, N-[5-Bromo-1-(pyrimidin-2-ylmethyl)-1H-pyrazol-3-yl]nicotinamide] | 100%

Same assay, conditions: application rate of 6 ppm in nutrient medium; 100% = all animals killed

Compound | efficacy (kill in %)
Cc1cc(NC(=O)c2cccnc2)nn1C(C)C1CC1 (centres unmarked) [Compound I-1-218] | 100%
Cc1cc(N(C)C(=O)c2cccnc2)nn1CC[S+](C)[O-] (centres unmarked) [Compound I-1-186] | 100%
Cc1cc(NC(=O)c2cccnc2)nn1CCC(F)(F)F [Compound I-1-188] | 100%
Cc1cc(NC(=O)c2cccnc2)nn1CC1CC1 [Compound I-1-174] | 100%
Cc1cc(NC(=O)c2cccnc2)nn1Cc1cc(C(=O)N(C)C)no1 [Compound I-1-298] | 100%
O=C(Nc1ccn(CC(F)F)n1)c1cccnc1 [Compound I-1-13] | 100%
Cc1cc(NC(=O)c2cccnc2)nn1Cn1c(C)nn(C)c1=O [Compound I-1-148] | 100%
Cc1cc(NC(=O)c2cccnc2)nn1CCC#N [Compound I-1-185] | 100%
Cc1cc(NC(=O)c2cccnc2)nn1Cn1ccnn1 [Compound I-1-223] | 100%
C#CCn1ccc(NC(=O)c2cccnc2)n1 [Compound I-1-54] | 100%
Cc1cc(NC(=O)c2cccnc2)nn1C(=O)NCC(C)C [Compound I-1-320] | 100%
Cc1cc(Cn2nc(NC(=O)c3cccnc3)cc2C)no1 [Compound I-1-283] | 100%
Cc1cc(NC(=O)c2cccnc2)nn1Cc1nccn1C [Compound I-1-293] | 100%
Cc1nnc(Cn2nc(NC(=O)c3cccnc3)cc2C)s1 [Compound I-1-296] | 100%
O=C(Nc1cc(C(F)(F)F)n(Cc2ncccn2)n1)c1cccnc1 [Compound I-1-196] | 100%
Cc1cc(NC(=O)c2cccnc2)nn1C(=O)N(C)C [Compound I-1-291] | 100%
Cc1cc(NC(=O)c2cccnc2)nn1Cc1ccccc1F [Compound I-1-64] | 100%
Cc1cc(NC(=O)c2cccnc2)nn1C(=O)OCC(F)(F)F [Compound I-1-259] | 100%
Cc1cc(NC(=O)c2cccnc2)nn1-c1ncc(C(F)(F)F)cc1Cl [Compound I-1-44] | 100%
Cc1cc(NC(=O)c2cccnc2)nn1C(=O)NC(C)C [Compound I-1-287] | 100%
Cc1cc(NC(=O)c2cccnc2)nn1Cn1cccn1 [Compound I-1-225] | 100%

Same assay, conditions: application rate of 30 ppm in nutrient medium; 100% = all animals killed

Compound | efficacy (kill in %)
Cc1cc(NC(=O)c2cccnc2)nn1C(C)C1CC1 (centres unmarked) [Compound I-1-218] | 100%
Cc1cc(N(C)C(=O)c2cccnc2)nn1CC[S+](C)[O-] (centres unmarked) [Compound I-1-186] | 100%
Cc1cc(NC(=O)c2cccnc2)nn1CCC(F)(F)F [Compound I-1-188] | 100%
Cc1cc(NC(=O)c2cccnc2)nn1CC1CC1 [Compound I-1-174] | 100%
Cc1cc(NC(=O)c2cccnc2)nn1Cc1cc(C(=O)N(C)C)no1 [Compound I-1-298] | 100%
O=C(Nc1ccn(CC(F)F)n1)c1cccnc1 [Compound I-1-13] | 100%
Cc1cc(NC(=O)c2cccnc2)nn1Cn1c(C)nn(C)c1=O [Compound I-1-148] | 100%
Cc1cc(NC(=O)c2cccnc2)nn1CCC#N [Compound I-1-185] | 100%
Cc1cc(NC(=O)c2cccnc2)nn1Cn1ccnn1 [Compound I-1-223] | 100%
C#CCn1ccc(NC(=O)c2cccnc2)n1 [Compound I-1-54] | 100%
Cc1cc(NC(=O)c2cccnc2)nn1C(=O)NCC(C)C [Compound I-1-320] | 100%
Cc1cc(Cn2nc(NC(=O)c3cccnc3)cc2C)no1 [Compound I-1-283] | 100%
Cc1cc(NC(=O)c2cccnc2)nn1Cc1nccn1C [Compound I-1-293] | 100%
Cc1nnc(Cn2nc(NC(=O)c3cccnc3)cc2C)s1 [Compound I-1-296] | 100%
O=C(Nc1cc(C(F)(F)F)n(Cc2ncccn2)n1)c1cccnc1 [Compound I-1-196] | 100%
Cc1cc(NC(=O)c2cccnc2)nn1C(=O)N(C)C [Compound I-1-291] | 100%
Cc1cc(NC(=O)c2cccnc2)nn1Cc1ccccc1F [Compound I-1-64] | 100%
Cc1cc(NC(=O)c2cccnc2)nn1C(=O)OCC(F)(F)F [Compound I-1-259] | 100%
Cc1cc(NC(=O)c2cccnc2)nn1-c1ncc(C(F)(F)F)cc1Cl [Compound I-1-44] | 100%
Cc1cc(NC(=O)c2cccnc2)nn1C(=O)NC(C)C [Compound I-1-287] | 100%
Cc1cc(NC(=O)c2cccnc2)nn1Cn1cccn1 [Compound I-1-225] | 100%

System: not listed separately
Assay: log P determination by LC-MS in the acidic range
Assay type: physicochemical
Conditions: LC-MS in the acidic range
Description: The LC-MS determination in the acidic range is effected at pH 2.7 using 0.1% aqueous formic acid and acetonitrile (contains 0.1% formic acid) as eluents, linear gradient from 10% acetonitrile to 95% acetonitrile. Alternatively, the determination is effected in the acidic range at pH 2.3 using 0.1% aqueous phosphoric acid and acetonitrile as eluents; linear gradient from 10% acetonitrile to 95% acetonitrile.

Compound | log P (acid)
Cc1cc(NC(=O)c2cccnc2)nn1C(C)C1CC1 (centres unmarked) [Compound I-1-218] | 1.63
Cc1cc(N(C)C(=O)c2cccnc2)nn1CC[S+](C)[O-] (centres unmarked) [Compound I-1-186] | 0.16
Cc1cc(NC(=O)c2cccnc2)nn1CCC(F)(F)F [Compound I-1-188] | 1.45
Cc1cc(NC(=O)c2cccnc2)nn1CC1CC1 [Compound I-1-174] | 1.31
Cc1cc(NC(=O)c2cccnc2)nn1Cc1cc(C(=O)N(C)C)no1 [Compound I-1-298] | 1.09
O=C(Nc1ccn(CC(F)F)n1)c1cccnc1 [Compound I-1-13] | 0.74
Cc1cc(NC(=O)c2cccnc2)nn1Cn1c(C)nn(C)c1=O [Compound I-1-148] | 0.74
Cc1cc(NC(=O)c2cccnc2)nn1CCC#N [Compound I-1-185] | 0.57
Cc1cc(NC(=O)c2cccnc2)nn1Cn1ccnn1 [Compound I-1-223] | 0.65
C#CCn1ccc(NC(=O)c2cccnc2)n1 [Compound I-1-54] | 0.69
Cc1cc(NC(=O)c2cccnc2)nn1C(=O)NCC(C)C [Compound I-1-320] | 1.89
Cc1cc(Cn2nc(NC(=O)c3cccnc3)cc2C)no1 [Compound I-1-283] | 1.19
Cc1cc(NC(=O)c2cccnc2)nn1Cc1nccn1C [Compound I-1-293] | −0.21
Cc1nnc(Cn2nc(NC(=O)c3cccnc3)cc2C)s1 [Compound I-1-296] | 0.83
O=C(Nc1cc(C(F)(F)F)n(Cc2ncccn2)n1)c1cccnc1 [Compound I-1-196] | 1.46
Cc1cc(NC(=O)c2cccnc2)nn1C(=O)N(C)C [Compound I-1-291] | 0.86
Cc1cc(NC(=O)c2cccnc2)nn1Cc1ccccc1F [Compound I-1-64] | 1.82
Cc1cc(NC(=O)c2cccnc2)nn1C(=O)OCC(F)(F)F [Compound I-1-259] | 1.79
Cc1cc(NC(=O)c2cccnc2)nn1-c1ncc(C(F)(F)F)cc1Cl [Compound I-1-44] | 2.2
Cc1cc(NC(=O)c2cccnc2)nn1C(=O)NC(C)C [Compound I-1-287] | 1.46
Cc1cc(NC(=O)c2cccnc2)nn1Cn1cccn1 [Compound I-1-225] | 0.94

Same assay, conditions: pH 2.7, LC-MS in the acidic range; read-out: log P (acid)

Compound | chromatographic logP
Cc1cc(NC(=O)c2cccnc2)n[nH]1 [Compound I-1-17, N-(5-Methyl-1H-pyrazol-3-yl)nicotinamide] | 0.3
CCS(=O)(=O)Cn1nc(NC(=O)c2cccnc2)cc1C [Compound I-1-246, N-{1-[(Ethylsulphonyl)methyl]-5-methyl-1H-pyrazol-3-yl}nicotinamide] | 0.83
Cc1cc(NC(=O)c2cncc(F)c2)nn1Cc1ncccn1 [Compound I-1-7, 5-Fluoro-N-[5-methyl-1-(pyrimidin-2-ylmethyl)-1H-pyrazol-3-yl]nicotinamide] | 1.11
O=C(Nc1cc(Br)n(Cc2ncccn2)n1)c1cccnc1 [Compound I-1-140, N-[5-Bromo-1-(pyrimidin-2-ylmethyl)-1H-pyrazol-3-yl]nicotinamide] | 1.1

Same assay, conditions: pH 2.7, values given in the synthesis examples and NMR lists; read-out: HPLC-MS: log P

Compound | chromatographic logP
Cc1cc(NC(=O)c2cccnc2)n[nH]1 [Compound I-1-17, N-(5-Methyl-1H-pyrazol-3-yl)nicotinamide] | 0.3
CCS(=O)(=O)Cn1nc(NC(=O)c2cccnc2)cc1C [Compound I-1-246, N-{1-[(Ethylsulphonyl)methyl]-5-methyl-1H-pyrazol-3-yl}nicotinamide] | 0.83
Cc1cc(NC(=O)c2cncc(F)c2)nn1Cc1ncccn1 [Compound I-1-7, 5-Fluoro-N-[5-methyl-1-(pyrimidin-2-ylmethyl)-1H-pyrazol-3-yl]nicotinamide] | 1.11
O=C(Nc1cc(Br)n(Cc2ncccn2)n1)c1cccnc1 [Compound I-1-140, N-[5-Bromo-1-(pyrimidin-2-ylmethyl)-1H-pyrazol-3-yl]nicotinamide] | 1.1

System: Myzus persicae
Assay: Myzus persicae - spray test
Assay type: in vivo
Conditions: Myzus persicae, foliar, 144 h; application rate of 500 g/ha; after 6 days; sprayed Chinese cabbage leaf discs infested by all stages; 100% = all aphids killed; read-out: efficacy in %
Protocol: Myzus persicae—spray test Solvent: 78 parts by weight of acetone • • 1.5 parts by weight of dimethylformamide Emulsifier: 0.5 part by weight of alkylaryl polyglycol ether To produce an appropriate active ingredient formulation, 1 part by weight of active ingredient is mixed with the specified amounts of solvent and emulsifier, and the concentrate is diluted to the desired concentration with emulsifier-containing water. Discs of Chinese cabbage leaves (Brassica pekinensis) infested by all stages of the green peach aphid (Myzus persicae) are sprayed with an active ingredient formulation of the desired concentration. After 6 days, the efficacy in % is determined. 100% means that all the aphids have been killed; 0% means that no aphids have been killed.

Compound | pest or weed control at 500 g/ha
Cc1cc(NC(=O)c2cccnc2)n[nH]1 [Compound I-1-17, N-(5-Methyl-1H-pyrazol-3-yl)nicotinamide] | 90%
CCS(=O)(=O)Cn1nc(NC(=O)c2cccnc2)cc1C [Compound I-1-246, N-{1-[(Ethylsulphonyl)methyl]-5-methyl-1H-pyrazol-3-yl}nicotinamide] | 100%
Cc1cc(NC(=O)c2cncc(F)c2)nn1Cc1ncccn1 [Compound I-1-7, 5-Fluoro-N-[5-methyl-1-(pyrimidin-2-ylmethyl)-1H-pyrazol-3-yl]nicotinamide] | 90%
O=C(Nc1cc(Br)n(Cc2ncccn2)n1)c1cccnc1 [Compound I-1-140, N-[5-Bromo-1-(pyrimidin-2-ylmethyl)-1H-pyrazol-3-yl]nicotinamide] | 90%

Same assay, conditions: application rate of 500 g/ha; after 6 days; sprayed Chinese cabbage leaf discs infested by all stages; 100% = all aphids killed

Compound | efficacy in %
Cc1cc(NC(=O)c2cccnc2)nn1C(C)C1CC1 (centres unmarked) [Compound I-1-218] | 100%
Cc1cc(N(C)C(=O)c2cccnc2)nn1CC[S+](C)[O-] (centres unmarked) [Compound I-1-186] | 100%
Cc1cc(NC(=O)c2cccnc2)nn1CCC(F)(F)F [Compound I-1-188] | 90%
Cc1cc(NC(=O)c2cccnc2)nn1CC1CC1 [Compound I-1-174] | 100%
Cc1cc(NC(=O)c2cccnc2)nn1Cc1cc(C(=O)N(C)C)no1 [Compound I-1-298] | 90%
O=C(Nc1ccn(CC(F)F)n1)c1cccnc1 [Compound I-1-13] | 90%
Cc1cc(NC(=O)c2cccnc2)nn1Cn1c(C)nn(C)c1=O [Compound I-1-148] | 90%
Cc1cc(NC(=O)c2cccnc2)nn1CCC#N [Compound I-1-185] | 100%
Cc1cc(NC(=O)c2cccnc2)nn1Cn1ccnn1 [Compound I-1-223] | 100%
C#CCn1ccc(NC(=O)c2cccnc2)n1 [Compound I-1-54] | 90%
Cc1cc(NC(=O)c2cccnc2)nn1C(=O)NCC(C)C [Compound I-1-320] | 90%
Cc1cc(Cn2nc(NC(=O)c3cccnc3)cc2C)no1 [Compound I-1-283] | 100%
Cc1cc(NC(=O)c2cccnc2)nn1Cc1nccn1C [Compound I-1-293] | 90%
Cc1nnc(Cn2nc(NC(=O)c3cccnc3)cc2C)s1 [Compound I-1-296] | 90%
O=C(Nc1cc(C(F)(F)F)n(Cc2ncccn2)n1)c1cccnc1 [Compound I-1-196] | 90%
Cc1cc(NC(=O)c2cccnc2)nn1C(=O)N(C)C [Compound I-1-291] | 90%
Cc1cc(NC(=O)c2cccnc2)nn1Cc1ccccc1F [Compound I-1-64] | 90%
Cc1cc(NC(=O)c2cccnc2)nn1C(=O)OCC(F)(F)F [Compound I-1-259] | 90%
Cc1cc(NC(=O)c2cccnc2)nn1-c1ncc(C(F)(F)F)cc1Cl [Compound I-1-44] | 100%
Cc1cc(NC(=O)c2cccnc2)nn1C(=O)NC(C)C [Compound I-1-287] | 90%
Cc1cc(NC(=O)c2cccnc2)nn1Cn1cccn1 [Compound I-1-225] | 100%
